Target: GluER (Gluconobacter oxydans, UniProt Q5FTL6, T36A)
Assay: UV-visible spectrum of reduced enzyme
Format: binding
Settings: dithionite reduction

## Cc1cc2c(cc1C)N(C[C@H](O)[C@H](O)[C@H](O)COP(=O)(O)O)c1[nH]c(=O)[nH]c(=O)c1N2 [FMNhq]
  UV-visible spectrum of reduced enzyme: UV-visible spectrum of reduced GluER-T36A (FMNhq)
